# Test results published in publication PMC3531433, “Structural Insights into Cellulolytic and Chitinolytic Enzymes Revealing Crucial Residues of Insect β-N-acetyl-D-hexosaminidase” (PLoS ONE, 2012).
# How the values were obtained:
# OfHex1 [1] = molecular target: T1, OfHex1 (Ostrinia furnacalis, UniProt Q06GJ0, E328Q); assay: inhibition of 4MU-β-GlcNAc hydrolysis, Dixon plot; type: biochemical
# T1 construct: pPIC9, secreted from Pichia pastoris GS115; HisTrap and Mono Q purified; dimer with N-terminal zincin-like and C-terminal catalytic domain (residues 207-594)
# T1 sequence (Q06GJ0 23-594 E328Q): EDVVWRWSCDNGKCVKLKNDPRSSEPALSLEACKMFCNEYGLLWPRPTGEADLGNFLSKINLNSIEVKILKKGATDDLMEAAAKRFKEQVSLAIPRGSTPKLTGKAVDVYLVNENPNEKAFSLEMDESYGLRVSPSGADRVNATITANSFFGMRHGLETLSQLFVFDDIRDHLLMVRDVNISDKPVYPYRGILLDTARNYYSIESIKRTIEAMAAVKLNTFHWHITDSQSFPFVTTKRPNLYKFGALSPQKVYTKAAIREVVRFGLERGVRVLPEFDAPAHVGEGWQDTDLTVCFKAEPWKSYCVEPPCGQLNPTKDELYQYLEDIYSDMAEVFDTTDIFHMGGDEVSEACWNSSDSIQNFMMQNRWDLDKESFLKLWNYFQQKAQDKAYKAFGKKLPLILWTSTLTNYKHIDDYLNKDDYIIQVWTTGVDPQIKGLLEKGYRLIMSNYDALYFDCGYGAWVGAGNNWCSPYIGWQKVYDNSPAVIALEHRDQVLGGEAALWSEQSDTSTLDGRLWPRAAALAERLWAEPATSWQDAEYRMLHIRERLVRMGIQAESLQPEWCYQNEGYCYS
# Description: (§1) inhibition of 4MU-β-GlcNAc hydrolysis, Dixon plot on OfHex1
# OfHex1 [2] = molecular target: T2, OfHex1 (Ostrinia furnacalis, UniProt Q06GJ0, E328A); assay: inhibition of 4MU-β-GlcNAc hydrolysis, Dixon plot; type: biochemical
# T2 construct: pPIC9, secreted from Pichia pastoris GS115; HisTrap and Mono Q purified; dimer with N-terminal zincin-like and C-terminal catalytic domain (residues 207-594)
# T2 sequence (Q06GJ0 23-594 E328A): T1 sequence (Q06GJ0 23-594 E328Q)
# Description: as §1
smiles,measurement,setting,value
CC(=O)N[C@@H]1[C@@H](O)[C@H](O[C@@H]2O[C@H](CO)[C@@H](O[C@@H]3O[C@H](CO)[C@@H](O[C@@H]4O[C@H](CO)[C@@H](O)[C@H](O)[C@H]4[N+](C)(C)C)[C@H](O)[C@H]3NC(C)=O)[C@H](O)[C@H]2NC(C)=O)[C@@H](CO)O[C@H]1O [TMG-chitotriomycin],Ki,OfHex1 [1],101 nM
same,Ki,OfHex1 [2],2710 nM
